Here are results for three compounds from patent EP0092121A1, “Methods and compositions for treating gastro-intestinal ulcer diesease” (BOARD OF REGENTS THE UNIVERSITY OF TEXAS SYSTEM, priority 1982, dated 1983).

This experiment relates to acute pylorus-ligated rat preparation. The experiment can be described thus: In vivo protection against acid-induced gastric damage in HCl-challenged rats (gross examination, gastric hemoglobin). The settings on record: individual phospholipid, gastric sample hemoglobin after 0.6 N HCl. The procedure: Applicants directly investigated this question in an acute pylorus-ligated rat preparation, in which test agents could be administered directly into the stomach by way of an esophageal cannula. Rats were fasted overnight and maintained under Nembutal anesthesia throughout the study period. The rats were divided into two groups (3 rats/grp); one group which was designated "surfactant treated" received 0.5 ml of a liposomal suspension in saline of the following phospholipids: […], 15 µg of DPPE, DPPG, DPPI and Sphingomyelin; and the second group (controls) was intragastrically injected with 0.5 ml of saline. Five minutes later both groups received 1 ml of an ulcerogenic dose of 0.6 N HCI. The anesthetized animals were left undisturbed for 45 minutes, after which they were sacrificed, and the stomachs excised, opened along the greater curvature and examined.
In another series of in vivo experiments, the individual phospholipids: dipalmitoyl lecithin, dipalmitoyl phosphatidyl ethanolamine, and phosphatidyl choline were tested for anti-ulcer activity. The experiments were performed as described above. In addition, immediately before the rat was sacrificed, a gastric sample was withdrawn for hemoglobin analysis. […] Sample anti-ulcer activity was measured as a percent of hemoglobin count relative to hemoglobin detected from animals pretreated with the combination of 135 µg DPL, 15 µg of DPPE, DPPG, DPPI and sphingomyelin mixture.
Anti-ulcer activity was inversely proportional,to the amount of hemoglobin detected. Table I tabulates the relative anti-ulcer activity of the individually tested phospholipids.

Turning to `CCCCCCCCCCCCCCCC(=O)OCC(COP(=O)([O-])OCC[N+](C)(C)C)OC(=O)CCCCCCCCCCCCCCC` (stereo not drawn) [Dipalmitoyl lecithin, dipalmitoyl lecithin], the “ACTIVITY (anti-ulcer activity, hemoglobin count relative to mixture)” value (15 µg) is 95% and the “ACTIVITY (anti-ulcer activity, hemoglobin count relative to mixture)” value (135 µg) was 90%.

For the compound `CCCCCCCCCCCCCCCC(=O)OCC(COP(=O)(O)OCCN)OC(=O)CCCCCCCCCCCCCCC` (stereo not drawn) [Dipalmitoyl phosphatidyl ethanolamine, dipalmitoyl phosphatidyl ethanolamine], the “ACTIVITY (anti-ulcer activity, hemoglobin count relative to mixture)” value is, setting by setting: (15 µg) 75-80%; (135 µg) 70%.

Turning to “phosphatidylcholine [Phosphatidyl choline]”, the “ACTIVITY (anti-ulcer activity, hemoglobin count relative to mixture)” value is, setting by setting: (15 µg) 80%; (135 µg) 80%.
